Source: the NIST ThermoML archive (doi:10.1016/j.fluid.2018.06.013)
± gives the expanded uncertainty stated by the source.

Experiment: activity coefficient (dimensionless); of the first substance listed, at infinite dilution; xn = mol fraction of the nth substance listed
Conditions: 100 kPa, Liquid, Chromatography, x1 = 0

Row | SMILES | activity coefficient (313.15 K) | activity coefficient (323.15 K) | activity coefficient (343.15 K) | activity coefficient (363.15 K) | activity coefficient (373.15 K)
1 | Cc1ccccc1 [toluene] + CCCC[N+]1(C)CCCC1.N#CN=C=[N-] | 2.07 ± 0.22 | 2.14 ± 0.22 | 2.3 ± 0.24 | 2.43 ± 0.26 | 2.48 ± 0.26
2 | CCC=O [propanal] + CCCC[N+]1(C)CCCC1.N#CN=C=[N-] | 1.04 ± 0.11 | 1.05 ± 0.11 | 1.1 ± 0.1 | 1.16 ± 0.12 | 1.21 ± 0.12
3 | C1COCCO1 [1,4-dioxane] + CCCC[N+]1(C)CCCC1.N#CN=C=[N-] | 0.909 ± 0.093 | 0.962 ± 0.098 | 1.05 ± 0.11 | 1.13 ± 0.12 | 1.17 ± 0.12
4 | CCCCCCC [heptane] + CCCC[N+]1(C)CCCC1.N#CN=C=[N-] | 79.1 ± 8.3 | 74.6 ± 7.9 | 66.5 ± 7 | 60.2 ± 6.3 | 53.6 ± 5.6
5 | CCO [ethanol] + CCCC[N+]1(C)CCCC1.N#CN=C=[N-] | 0.533 ± 0.058 | 0.525 ± 0.057 | 0.52 ± 0.06 | 0.519 ± 0.057 | 0.521 ± 0.057
6 | c1ccncc1 [pyridine] + CCCC[N+]1(C)CCCC1.N#CN=C=[N-] | 1.02 ± 0.1 | 1.05 ± 0.11 | 1.07 ± 0.11 | 1.11 ± 0.11 | 1.13 ± 0.12
7 | C#CCCCCC [1-heptyne] + CCCC[N+]1(C)CCCC1.N#CN=C=[N-] | 5.76 ± 0.61 | 5.95 ± 0.63 | 6.39 ± 0.67 | 6.76 ± 0.71 | 6.92 ± 0.73
8 | CCOC(C)=O [ethyl acetate] + CCCC[N+]1(C)CCCC1.N#CN=C=[N-] | 2.35 ± 0.25 | 2.36 ± 0.25 | 2.48 ± 0.26 | 2.57 ± 0.27 | 2.61 ± 0.27
9 | Cc1ccccc1C [1,2-dimethylbenzene] + CCCC[N+]1(C)CCCC1.N#CN=C=[N-] | 2.69 ± 0.28 | 2.75 ± 0.29 | 2.91 ± 0.31 | 3.1 ± 0.3 | 3.18 ± 0.33
10 | CCCCCCCCC [nonane] + CCCC[N+]1(C)CCCC1.N#CN=C=[N-] | 172 ± 18 | 154 ± 16 | 133 ± 14 | 120 ± 13 | 114 ± 12
11 | C=CCCCCC [1-heptene] + CCCC[N+]1(C)CCCC1.N#CN=C=[N-] | 31.5 ± 3.3 | 30.4 ± 3.2 | 29.2 ± 3.1 | 27.8 ± 2.9 | 27.7 ± 2.9
12 | CCC(C)(C)OC [2-methoxy-2-methylbutane] + CCCC[N+]1(C)CCCC1.N#CN=C=[N-] | 9.56 ± 1 | 9.39 ± 0.99 | 9.65 ± 1 | 9.77 ± 1 | 9.93 ± 1
13 | CCCC=O [butanal] + CCCC[N+]1(C)CCCC1.N#CN=C=[N-] | 1.4 ± 0.14 | 1.46 ± 0.15 | 1.53 ± 0.16 | 1.62 ± 0.17 | 1.67 ± 0.17
14 | CC(C)CO [2-methyl-1-propanol] + CCCC[N+]1(C)CCCC1.N#CN=C=[N-] | 0.872 ± 0.089 | 0.835 ± 0.086 | 0.785 ± 0.081 | 0.786 ± 0.081 | 0.764 ± 0.079
15 | C1CCOC1 [tetrahydrofuran] + CCCC[N+]1(C)CCCC1.N#CN=C=[N-] | 1.34 ± 0.14 | 1.39 ± 0.14 | 1.48 ± 0.15 | 1.56 ± 0.16 | 1.6 ± 0.17
16 | C=CCCCC [hex-1-ene] + CCCC[N+]1(C)CCCC1.N#CN=C=[N-] | 21 ± 2.2 | 20.3 ± 2.1 | 19.3 ± 2 | 18.4 ± 1.9 | 18.6 ± 2
17 | CO [methanol] + CCCC[N+]1(C)CCCC1.N#CN=C=[N-] | 0.336 ± 0.042 | 0.333 ± 0.041 | 0.339 ± 0.042 | 0.348 ± 0.043 | 0.353 ± 0.043
18 | C=C(C)c1ccccc1 [(1-methylethenyl)benzene] + CCCC[N+]1(C)CCCC1.N#CN=C=[N-] | 2.2 ± 0.23 | 2.37 ± 0.25 | 2.67 ± 0.28 | 2.89 ± 0.3 | 3.02 ± 0.32
19 | CC(C)OC(C)C [diisopropyl ether] + CCCC[N+]1(C)CCCC1.N#CN=C=[N-] | 19.4 ± 2 | 18.8 ± 2 | 19.1 ± 2 | 18.6 ± 2 | 18.3 ± 1.9
20 | CCC(=O)CC [pentan-3-one] + CCCC[N+]1(C)CCCC1.N#CN=C=[N-] | 1.7 ± 0.18 | 1.76 ± 0.18 | 1.9 ± 0.2 | 1.99 ± 0.21 | 2.04 ± 0.21
21 | CCOC(C)(C)C [2-ethoxy-2-methylpropane] + CCCC[N+]1(C)CCCC1.N#CN=C=[N-] | 17.2 ± 1.8 | 16.9 ± 1.8 | 16.9 ± 1.8 | 16.7 ± 1.8 | 16.1 ± 1.7
